Reference: patent US20230114241A1, “METHODS OF TREATING EPILEPSY USING THE SAME” (Trevena, Inc., priority 2019, published 2023)

Columns and labels:
Type in all cases: cell-based
[1] = biological target: T1, human sphingosine-1-phosphate receptor 1 (S1P1) (Homo sapiens, UniProt P21453); experiment: Inhibition of cAMP production (HTRF cAMP HiRange), S1P1 CHO-K1 cells; conditions: for Emax: CHO-K1, efficacy normalized to maximum efficacy of fingolimod, read-out: hS1P1 CAMP SPAN; for EC50: read-out: hS1P1 CAMP pEC50 (converted)
How it was run: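 CHO-K1 cells co-expressing human S1P1 (C-terminal ProLink tag) and EA-β-arrestin2, plated overnight; after 30 min compound incubation at 37 °C, intracellular cAMP measured by HTRF TR-FRET following 1 h at room temperature. Values normalized to fingolimod.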
Target sequence in this assay (P21453 whole entry): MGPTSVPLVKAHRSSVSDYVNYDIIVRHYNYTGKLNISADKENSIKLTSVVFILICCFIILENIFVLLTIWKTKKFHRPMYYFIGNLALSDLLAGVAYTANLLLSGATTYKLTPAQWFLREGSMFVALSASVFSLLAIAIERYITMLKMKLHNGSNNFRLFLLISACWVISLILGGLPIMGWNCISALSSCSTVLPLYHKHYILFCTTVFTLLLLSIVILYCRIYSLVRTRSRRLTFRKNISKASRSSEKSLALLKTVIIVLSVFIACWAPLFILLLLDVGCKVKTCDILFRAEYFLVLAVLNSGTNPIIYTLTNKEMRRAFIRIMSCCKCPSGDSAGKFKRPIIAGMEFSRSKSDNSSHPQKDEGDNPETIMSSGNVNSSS

[2] = biological target: T1, human sphingosine-1-phosphate receptor 1 (S1P1); experiment: β-Arrestin2 recruitment assay (PathHunter), S1P1 CHO-K1 cells; conditions: for Emax: efficacy normalized to maximum efficacy of fingolimod, read-out: hS1P1 B-arrestin2 SPAN; for EC50: β-arrestin2 recruitment, read-out: hS1P1 B-arrestin2 pEC50 (converted)
How it was run: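 CHO-K1 cells co-expressing EA-β-arrestin2 and ProLink-tagged human S1P1 plated overnight, then stimulated 60 min at 37 °C. Enzyme-fragment complementation (β-galactosidase) detected after 1 h at room temperature by luminescence; values normalized to fingolimod.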
Target sequence in this assay (P21453 whole entry): as above
Target sequence in this assay (P32121 whole entry partner): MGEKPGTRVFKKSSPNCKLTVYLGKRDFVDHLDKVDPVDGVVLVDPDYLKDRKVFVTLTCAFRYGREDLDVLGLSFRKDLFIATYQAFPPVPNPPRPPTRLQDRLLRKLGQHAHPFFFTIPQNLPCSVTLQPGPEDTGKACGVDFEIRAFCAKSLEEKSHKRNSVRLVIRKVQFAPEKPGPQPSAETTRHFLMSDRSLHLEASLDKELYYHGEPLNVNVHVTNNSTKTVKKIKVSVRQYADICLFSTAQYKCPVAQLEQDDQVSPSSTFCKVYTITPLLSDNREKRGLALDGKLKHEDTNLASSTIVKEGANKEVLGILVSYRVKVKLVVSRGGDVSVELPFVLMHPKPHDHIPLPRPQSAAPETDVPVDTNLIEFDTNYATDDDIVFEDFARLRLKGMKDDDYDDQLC

[3] = biological target: human sphingosine-1-phosphate receptor 2 (S1P2) (Homo sapiens, UniProt O95136); experiment: Selectivity: inositol monophosphate production (IP-one), S1P2 CHO-K1 cells
Chain of human sphingosine-1-phosphate receptor 2 (S1P2) (O95136 whole entry): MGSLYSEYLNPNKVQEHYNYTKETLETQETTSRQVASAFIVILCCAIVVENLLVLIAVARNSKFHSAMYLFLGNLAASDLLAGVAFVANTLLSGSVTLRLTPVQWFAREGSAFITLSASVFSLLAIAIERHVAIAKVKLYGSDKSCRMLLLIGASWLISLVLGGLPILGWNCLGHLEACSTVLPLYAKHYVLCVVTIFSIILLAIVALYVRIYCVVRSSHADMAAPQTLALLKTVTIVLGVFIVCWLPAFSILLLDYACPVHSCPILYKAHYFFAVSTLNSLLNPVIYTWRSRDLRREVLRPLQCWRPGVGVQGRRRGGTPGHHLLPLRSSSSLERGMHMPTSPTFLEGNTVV
Procedure: (§1) Cell Culturing and Assay Plating Cell lines were cultured in AssayComplete™ Media 6 (DiscoverX Corporation, Cat #: 920018GF2) at 37° C. and 5% CO2 in a humidified CO2 and temperature-controlled incubator. To begin assay plating, cells were washed with Dulbecco's phosphate buffered saline (CellGro, Cat #: 21-031-CV) and lifted from the culturing flask by incubation (37° C., 5 min) with CellStripper (Cellgro, Cat #: 25-056-CI). […] Plated cells were incubated overnight at 37° C. and 5% CO2 in a humidified CO2 and temperature-controlled incubator. Detecting Inhibition of cAMP Production
S1P2 Agonist-promoted G-protein responses were determined by measuring changes in intracellular inositol monophosphate using the IP-one TB kit (CisBio, Cat #: 62IPAPEJ) based on time-resolved fluorescence resonance energy transfer (TR-FRET) technology. AssayComplete™ Cell Plating 2 Reagent was removed and replaced with 1× IP-one stimulation buffer (as per manufacturer's instructions) along with test or control compounds at the desired concentrations.
Following a 60-minute incubation at 37° C. and 5% CO2 in a humidified CO2 and temperature-controlled incubator, the components of the IP-one TB kit were added as per the manufacturer's instructions. After an hour incubation at room temperature, plates were analyzed by a BMG PheraStar microplate reader.
(§2) These values are normalized to fimgolimod, a known agonist of the sphingosine-1-phosphate 3 and 5 receptor or CYM5520, a known agonist of the sphingosine-1-phosphate 2 receptor. The tables also include potency values (pEC50) for modulating discrete receptor-mediated activities (inhibition of cAMP production or inositol monophosphate accumulation).

[4] = biological target: human sphingosine-1-phosphate receptor 3 (S1P3) (Homo sapiens, UniProt Q99500); experiment: Selectivity: inhibition of cAMP production (HTRF), S1P3 CHO-K1 cells
Chain of human sphingosine-1-phosphate receptor 3 (S1P3) (Q99500 whole entry): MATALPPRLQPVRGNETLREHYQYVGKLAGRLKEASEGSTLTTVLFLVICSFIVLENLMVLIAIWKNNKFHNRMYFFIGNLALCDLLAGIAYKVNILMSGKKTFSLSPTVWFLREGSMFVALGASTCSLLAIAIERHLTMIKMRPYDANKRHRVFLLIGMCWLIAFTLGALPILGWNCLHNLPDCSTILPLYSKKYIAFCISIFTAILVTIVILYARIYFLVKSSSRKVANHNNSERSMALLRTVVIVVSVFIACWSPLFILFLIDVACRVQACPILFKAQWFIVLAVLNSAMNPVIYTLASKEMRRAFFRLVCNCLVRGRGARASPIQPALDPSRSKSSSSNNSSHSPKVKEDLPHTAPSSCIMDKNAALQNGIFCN
Procedure: as §1
S1P3 and S1P5 Agonist-promoted G-protein responses were determined by measuring changes in intracellular cAMP using the HTRF® cAMP HiRange kit (CisBio, Cat #: 62AM6PEJ) based on time-resolved fluorescence resonance energy transfer (TR-FRET) technology. […] Following a 30-minute room temperature incubation the components of the cAMP HiRange kit were added as per the manufacturer's instructions. After an hour incubation at room temperature, plates were analyzed by a BMG PheraStar microplate reader.
as §2

[5] = inhibition of cAMP production, S1P1
[6] = inhibition of cAMP production, potency
[7] = CHO-K1, β-arrestin2 recruitment

Compound	Emax [1]	EC50 [1, 5]	Emax ([2]; CHO-K1)	EC50 ([2]; S1P1)	further results
CC(C)Nc1ccc(-c2nc(-c3ccc4c(c3)NC(=O)C4)no2)cc1C#N [Compound 496, 2-(isopropylamino)-5-(3-(2-oxoindolin-6-yl)-1,2,4-oxadiazol-5-yl)benzonitrile]	> 75%	< 0.316 µM	> 75%	< 10 µM	Emax ([3]; CHO-K1, efficacy normalized to maximal efficacy of CYM5520, read-out: hS1P2 IP-one SPAN): < 50%; EC50 ([3]; inositol monophosphate accumulation, read-out: hS1P2 IP-one pEC50 (converted)): > 10 µM; Emax ([4]; CHO-K1, efficacy normalized to maximal efficacy of fimgolimod, read-out: hS1P3 cAMP SPAN): < 50%; EC50 ([4]; inhibition of cAMP production, read-out: hS1P3 cAMP pEC50 (converted)): > 10 µM
COC(=O)CCn1nnc2cc(-c3noc(-c4ccccc4Br)n3)ccc21 [Compound 161, methyl 3-(5-(5-(2-bromophenyl)-1,2,4-oxadiazol-3-yl)-1H-benzo[d][1,2,3]triazol-1-yl)propanoate]					Emax ([1]; inhibition of cAMP production): < 75%; EC50 [1, 6]: > 0.316 µM; Emax [2, 7]: > 75%; EC50 ([2]; potency): > 10 µM
COc1cccc(-c2csc(-c3ccc4c(ccn4C(C)C)n3)n2)c1 [Compound 410, 2-(1-isoproplpyrrolo[3,2-b]pyridin-5-yl)-4-(3-methoxyphenyl)thiazole]	< 75%	> 0.316 µM	< 75%	> 10 µM	
CCC1(CC)CC(=O)c2cc(-c3nc(-c4ccc(C(F)(F)F)nc4)no3)ccc2O1 [Compound 548, 2,2-diethyl-6-(3-(6-(trifluoromethyl)pyridin-3-yl)-1,2,4-oxadiazol-5-yl)chroman-4-one]	< 75%	> 0.316 µM	< 75%	> 10 µM	
O=C1CNc2ccc(-c3nc(-c4cn[nH]c4)no3)cc2N1 [Compound 645, 7-[3-(1H-pyrazol-4-yl)-1,2,4-oxadiazol-5-yl]-1,2,3,4-tetrahydro-quinoxalin-2-one]	> 75%	> 0.316 µM	< 75%	> 10 µM	
CCC1(CC)C/C(=N\O)c2cc(-c3nc(-c4cccnc4)no3)ccc2O1 [Compound 431, N-[(4E)-2,2-diethyl-6-[3-(pyridin-3-yl)-1,2,4-oxadiazol-5-yl]-3,4-dihydro-2H-1-benzopyran-4-ylidene]hydroxylamine]	> 75%	> 0.316 µM	> 75%	> 10 µM	
Cc1occc1-c1noc(-c2ccc3c(c2)nnn3C(C)C)n1 [Compound 491, 5-[3-(2-methylfuran-3-yl)-1,2,4-oxadiazol-5-yl]-1-(propan-2-yl)-1H-1,2,3-benzotriazole]	> 75%	< 0.316 µM	> 75%	< 10 µM	
CCC1(CC)CC(=O)c2cc(-c3nc(-c4ccoc4)no3)ccc2O1 [Compound 495, 2,2-diethyl-6-(3-(furan-3-yl)-1,2,4-oxadiazol-5-yl)chroman-4-one]	> 75%	< 0.316 µM	> 75%	< 10 µM	
Brc1ccccc1-c1nc(-c2ccc3c(c2)nnn3Cc2ccccn2)no1 [Compound 45, 5-(2-bromophenyl)-3-(1-(pyridin-2-ylmethyl)-1H-benzo[d][1,2,3]triazol-5-yl)-1,2,4-oxadiazole]					Emax ([1]; inhibition of cAMP production): < 75%; EC50 [1, 6]: > 0.316 µM; Emax [2, 7]: < 75%; EC50 ([2]; potency): > 10 µM
Cc1ccccc1-c1noc(-c2ccc3c(c2)nnn3C2CCC2)n1 [Compound 306, 1-cyclobutyl-5-[3-(2-methylphenyl)-1,2,4-oxadiazol-5-yl]-1H-1,2,3-benzotriazole]					Emax ([1]; inhibition of cAMP production): > 75%; EC50 [1, 6]: < 0.316 µM; Emax [2, 7]: < 75%; EC50 ([2]; potency): < 10 µM
COc1ccccc1-c1c[nH]c(-c2ccc3c(c2)nnn3C(C)C)c1 [Compound 566, 5-[4-(2-methoxyphenyl)-1H-pyrrol-2-yl]-1-(propan-2-yl)-1H-1,2,3-benzotriazole]	< 75%	> 0.316 µM	< 75%	> 10 µM	
CCC1(CC)CC(=O)c2cc(-c3nc(-c4ccc(NS(C)(=O)=O)cc4OC)no3)ccc2O1 [Compound 568, N-{4-[5-(2,2-diethyl-4-oxo-3,4-dihydro-2H-1-benzopyran-6-yl)-1,2,4-oxadiazol-3-yl]-3-methoxyphenyl}methane-sulfonamide]	> 75%	< 0.316 µM	> 75%	< 10 µM	
COCC1(COC)CC(=O)c2cc(-c3nc(-c4ccncc4)no3)ccc2O1 [Compound 494, 2,2-bis(methoxy-methyl)-6-[3-(pyridin-4-yl)-1,2,4-oxadiazol-5-yl]-3,4-dihydro-2H-1-benzopyran-4-one]	< 75%	> 0.316 µM	< 75%	< 10 µM	
COc1ccccc1-c1noc(-c2ccc3c(ccn3C(C)C)c2)n1 [Compound 372, 5-(1-isopropyl-1H-indol-5-yl)-3-(2-methoxy-phenyl)-1,2,4-oxadiazole]	> 75%	< 0.316 µM	> 75%	< 10 µM	
COc1ccccc1-c1noc(-c2ccc3[nH]cnc3c2)n1 [Compound 369, 5-(1H-benzo[d]imidazol-5-yl)-3-(2-methoxy-phenyl)-1,2,4-oxadiazole]					Emax ([1]; inhibition of cAMP production): < 75%; EC50 [1, 6]: > 0.316 µM; Emax [2, 7]: < 75%; EC50 ([2]; potency): > 10 µM
CCC1(CC)CC(=O)c2cc(-c3nnc(-c4ccccc4OC)o3)ccc2O1 [Compound 300, 2,2-diethyl-6-(5-(2-methoxyphenyl)-1,3,4-oxadiazol-2-yl)chroman-4-one]					Emax ([1]; inhibition of cAMP production): > 75%; EC50 [1, 6]: > 0.316 µM; Emax [2, 7]: > 75%; EC50 ([2]; potency): > 10 µM
N#Cc1cc(-c2nnc(-c3cccc4[nH]cnc34)o2)ccc1NCC(F)F [Compound 586, 5-[5-(1H-1,3-benzodiazol-4-yl)-1,3,4-oxadiazol-2-yl]-2-[(2,2-difluoro-ethyl)amino]benzonitrile]	> 75%	< 0.316 µM	> 75%	< 10 µM	
CC(C)n1ccc2cc(-c3noc(-c4ccncc4F)n3)ccc21 [Compound 399, 5-(3-fluoropyridin-4-yl)-3-(1-isopropyl-1H-indol-5-yl)-1,2,4-oxadiazole]	> 75%	< 0.316 µM	< 75%	< 10 µM	
Cc1nccnc1-c1nc(-c2ccc3c(c2)nnn3CC(C)(C)CO)no1 [Compound 540, 2,2-dimethyl-3-(5-(5-(3-methylpyrazin-2-yl)-1,2,4-oxadiazol-3-yl)-1H-benzo[d] [1,2,3]triazol-1-yl)propan-1-ol]	< 75%	> 0.316 µM	< 75%	> 10 µM	
CC(C)n1nnc2cc(-c3noc(-c4cccc(F)c4)n3)ccc21 [Compound 64, 5-(3-fluorophenyl)-3-(1-isopropyl-benzotriazol-5-yl)-1,2,4-oxadiazole]					Emax ([1]; inhibition of cAMP production): > 75%; EC50 [1, 6]: < 0.316 µM; Emax [2, 7]: > 75%; EC50 ([2]; potency): > 10 µM
CC(C)Nc1ccc(-c2nc(-c3ccc4c(c3)C(=O)NCC4)no2)cc1C#N [Compound 514, 2-(isopropylamino)-5-(3-(l-oxo-1,2,3,4-tetra-hydroisoquinolin-7-yl)-1,2,4-oxadiazol-5-yl)benzonitrile]	> 75%	< 0.316 µM	< 75%	< 10 µM	
COc1ccc(-c2nc(-c3ccc4c(c3)nnn4C(C)(C)CO)no2)c(C)c1 [Compound 610, 2-(5-(5-(4-methoxy-2-methylphenyl)-1,2,4-oxadiazol-3-yl)-1H-benzo[d] [1,2,3]triazol-1-yl)-2-methylpropan-1-ol]	< 75%	> 0.316 µM	> 75%	> 10 µM	
